Assay: Water gain (moisture uptake) of treated cotton swatches, no rinse / with rinse
Type: physicochemical
Conditions: dried
Method: Table 2: Water gain (mg) for cotton swatches with different treatments. […] No-rinse samples were treated, dried then incubated to monitor moisture uptake. With rinse samples were treated, rinsed with water, dried then incubated to monitor moisture uptake. Control represents swatches treated with water only.
For table 2, the test method is as follows: For “no rinse”: 1×1 cm cotton swatches (triplicates) are placed into a weigh boat where each is labeled according to treatment type and number. Initial weights are recorded for each sample. 500 uL of polymer solution is applied to each cotton swatch sample then reweighed as wet weight. Samples are allowed to dry overnight at room temperature conditions. Sample weights are recorded in the following morning as “no rinse”. Samples are then placed on a tray in the incubator at 37° C., 3.3% CO2, and approximately 90% humidity (the metal tray at the bottom of the incubator has plenty of distilled water in the pan to ensure constant humidity). Opening and closing the incubator door frequently causes parameters to shift so minimizing this will ensure proper control over parameter. Samples are incubated for 8 hours then reweighed. The weights represent the moisture uptake ability for the treated samples. […] Samples are weighed and placed in the incubator the following morning similar to above described procedure and weights are recorded as “with rinse”.

- Water gain (No Rinse, incubated 8 hours at 37° C., approximately 90% humidity): 393.3 mg
- Water gain (With Rinse, rinsed with water, then incubated): 126.9 mg
SMILES: OCC(O)CO [40% glycerin, glycerin]
